Source: ChEMBL document CHEMBL1151232, “First synthesis and determination of the absolute configuration of sulphostin, a novel inhibitor of dipeptidyl peptidase IV” (J Nat Prod, 2004)

Legend:
[1] = target: Dipeptidyl peptidase 4 (Rattus norvegicus) (UniProt P14740); settings: 16 ng/ml
Description: Inhibition of rat kidney DPP4 at 16 ng/ml

[2] = target: Dipeptidyl peptidase 4 (Rattus norvegicus) (UniProt P14740); settings: 2 ng/ml
Description: Inhibition of rat kidney DPP4 at 2 ng/ml

[3] = target: Dipeptidyl peptidase 4 (Rattus norvegicus) (UniProt P14740); settings: 8 ng/ml
Description: Inhibition of rat kidney DPP4 at 8 ng/ml

[4] = target: Dipeptidyl peptidase 4 (Rattus norvegicus) (UniProt P14740); settings: 32 ng/ml
Description: Inhibition of rat kidney DPP4 at 32 ng/ml

[5] = target: Dipeptidyl peptidase 4 (Rattus norvegicus) (UniProt P14740); settings: 0.5 ng/ml
Description: Inhibition of rat kidney DPP4 at 0.5 ng/ml

[6] = target: Dipeptidyl peptidase 4 (Rattus norvegicus) (UniProt P14740); settings: 1 ng/ml
Description: Inhibition of rat kidney DPP4 at 1 ng/ml

[7] = target: Dipeptidyl peptidase 4 (Rattus norvegicus) (UniProt P14740); settings: 64 ng/ml
Description: Inhibition of rat kidney DPP4 at 64 ng/ml

[8] = target: Dipeptidyl peptidase 4 (Rattus norvegicus) (UniProt P14740); settings: 4 ng/ml
Description: Inhibition of rat kidney DPP4 at 4 ng/ml

Chain of Dipeptidyl peptidase 4 (Rattus norvegicus) (P14740 whole entry, looked up): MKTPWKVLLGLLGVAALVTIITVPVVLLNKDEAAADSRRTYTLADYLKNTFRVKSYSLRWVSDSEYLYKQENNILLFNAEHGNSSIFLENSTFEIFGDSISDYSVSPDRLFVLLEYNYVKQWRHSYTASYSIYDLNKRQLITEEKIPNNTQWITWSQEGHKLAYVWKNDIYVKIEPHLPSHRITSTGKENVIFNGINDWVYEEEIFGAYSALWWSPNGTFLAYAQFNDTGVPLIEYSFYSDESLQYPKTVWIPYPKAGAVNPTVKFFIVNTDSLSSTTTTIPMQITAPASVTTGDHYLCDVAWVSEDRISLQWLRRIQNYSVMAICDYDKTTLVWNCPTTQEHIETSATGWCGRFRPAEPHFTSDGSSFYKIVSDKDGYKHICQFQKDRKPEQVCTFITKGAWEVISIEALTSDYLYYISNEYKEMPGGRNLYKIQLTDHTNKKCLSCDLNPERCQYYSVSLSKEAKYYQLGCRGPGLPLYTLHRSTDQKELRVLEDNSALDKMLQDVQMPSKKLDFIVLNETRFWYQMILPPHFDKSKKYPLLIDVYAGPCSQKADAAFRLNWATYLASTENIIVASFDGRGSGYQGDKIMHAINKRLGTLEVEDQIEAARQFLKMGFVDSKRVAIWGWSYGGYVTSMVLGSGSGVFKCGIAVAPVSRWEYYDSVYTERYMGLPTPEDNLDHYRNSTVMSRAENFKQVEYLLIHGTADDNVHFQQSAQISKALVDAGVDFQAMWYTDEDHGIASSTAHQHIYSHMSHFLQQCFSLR

`N[C@H]1CCCN([P@@](N)(=O)NS(=O)(=O)O)C1=O` was tested, and the inhibition [1] was 66.9%, the inhibition [2] was 30.6% and the inhibition [3] was 54.4%. It also gave an inhibition [4] of 77.4%, an inhibition [5] of 15.9% and an inhibition [6] of 20.2%. It also gave an inhibition [7] of 84.5% and an inhibition [8] of 41.9%.
